This passage reports TGI results from PubChem BioAssay (NCI).

Test systems include UACC-257 melanoma; U251 CNS; A498 renal; SK-MEL-28 melanoma; SNB-75 CNS; HL-60(TB) leukemia; SF-295 CNS; LOX IMVI melanoma; MCF7 breast; PC-3 prostate.
Common to all, as to assay: NCI anticancer screen, dose series, 48 h

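Dose response: 5 concentrations. Exposure: 48 h. Format: 96-well plates. Endpoint: linear interpolation; highest concentration if not reached. TGI marks complete inhibition of growth.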

For the compound `Cc1occ2c1C(=O)CC1C2[C@@H](O)CC2C(C)(C)CCC[C@]12C` (some centres undefined), the TGI in the assay on UACC-257 melanoma, in the assay on U251 CNS, in the assay with A498 renal, with SK-MEL-28 melanoma, in the assay on SNB-75 CNS and in the assay with HL-60(TB) leukemia was above 100 µM each time. In the assay on SF-295 CNS, this compound displayed a TGI above 100 µM.
Consider `COc1cc(C(c2cccc3ccccc23)N2C(=O)CCC2C(=O)NCc2ccccc2)cc(OC)c1OC` (centres undefined), for which the TGI with UACC-257 melanoma, in the assay on U251 CNS, in the assay with A498 renal, in the assay with SK-MEL-28 melanoma, with HL-60(TB) leukemia and with LOX IMVI melanoma was above 100 µM in each case. The TGI in the assay with SF-295 CNS and in the assay with MCF7 breast was above 100 µM throughout.
For `COc1ccc2c(c1)CC1Cc3ccccc3CCN1C2` (centres undefined), the TGI with UACC-257 melanoma is above 100 µM; in the assay with U251 CNS, above 100 µM; in the assay on SK-MEL-28 melanoma, above 100 µM; in the assay on SNB-75 CNS it was above 100 µM; in the assay with HL-60(TB) leukemia, above 100 µM; in the assay with LOX IMVI melanoma, 51.8 µM. The TGI in the assay on SF-295 CNS, in the assay with MCF7 breast and in the assay on PC-3 prostate was above 100 µM throughout.
`Nc1ccc(-c2nc3ccc(F)cc3s2)cc1`: the TGI is above 100 µM with UACC-257 melanoma; above 100 µM in the assay with U251 CNS; 80.3 µM in the assay with A498 renal; above 100 µM in the assay on SK-MEL-28 melanoma; 95 µM in the assay with SNB-75 CNS; above 100 µM in the assay on LOX IMVI melanoma. Also, the TGI in the assay on SF-295 CNS was 60.7 µM; in the assay with PC-3 prostate, 92.6 µM.
As to `O/N=C1\CCc2nonc2\C1=N/Nc1ccccc1`, the TGI in the assay on UACC-257 melanoma, in the assay with U251 CNS, in the assay on SK-MEL-28 melanoma, in the assay on SNB-75 CNS, in the assay on HL-60(TB) leukemia and in the assay with LOX IMVI melanoma was above 100 µM each time. In addition, the TGI in the assay with SF-295 CNS and with PC-3 prostate was above 100 µM in each case.
As to `C#CCSc1nc(N)c2ncn(C3OC(COP(=O)(O)O)C(O)C3O)c2n1` (centres undefined), the TGI with UACC-257 melanoma, in the assay on A498 renal, in the assay on SK-MEL-28 melanoma, in the assay on SNB-75 CNS, in the assay on HL-60(TB) leukemia and in the assay with LOX IMVI melanoma was above 239 µM each time. Further, the TGI with SF-295 CNS is above 239 µM.
Take `COC(=O)C1=C(C)N(NC(=O)c2ccccc2)C2(O)CCCC(=O)C12C` (centres undefined): the TGI in the assay on UACC-257 melanoma, in the assay with U251 CNS, with A498 renal, in the assay on SK-MEL-28 melanoma, in the assay on SNB-75 CNS and in the assay with LOX IMVI melanoma was above 100 µM throughout. Also, the TGI in the assay with SF-295 CNS is above 100 µM.
As for `[N-]=[N+]=NC[C@H]1OCO[C@H](CN=[N+]=[N-])[C@H]2OCCOCCOc3ccccc3OCCOCCO[C@@H]21`, the TGI in the assay with UACC-257 melanoma, in the assay on U251 CNS, in the assay with SK-MEL-28 melanoma, in the assay on SNB-75 CNS, with HL-60(TB) leukemia and in the assay with LOX IMVI melanoma was above 100 µM throughout. Further, the TGI in the assay on SF-295 CNS, with MCF7 breast and in the assay on PC-3 prostate was above 100 µM in each case.
For the compound `CN1Cc2c(nc(-c3ccc(Br)cc3)c[n+]2[O-])N(C)C1`, the TGI in the assay on UACC-257 melanoma, with U251 CNS, with A498 renal, in the assay with SK-MEL-28 melanoma, in the assay with SNB-75 CNS and in the assay on HL-60(TB) leukemia was above 100 µM each time. Also, the TGI with SF-295 CNS was above 100 µM.
Take `Cc1nn(C(=O)c2ccncc2)c2c1C(c1cccc([N+](=O)[O-])c1)SC(N)=N2` (centres undefined): the TGI with UACC-257 melanoma, in the assay on U251 CNS, in the assay on SK-MEL-28 melanoma, in the assay with SNB-75 CNS, in the assay on HL-60(TB) leukemia and in the assay on LOX IMVI melanoma was above 10 µM in each case. Further, the TGI in the assay on SF-295 CNS, in the assay with MCF7 breast and with PC-3 prostate was above 10 µM in each case.
Regarding `CC1=C[C@@H](C)C[C@]2(C)CC[C@H](O2)[C@]23CC[C@](C)(C[C@H](O2)[C@@H]2O[C@@](C)(CC2=O)[C@@H](O)[C@H]2CC[C@@]4(CCC[C@@H](O4)[C@H](C)C(=O)O[C@H]4C[C@H]([C@]5(O)OCC[C@H](C)[C@@H]5O)O[C@H]4C=C1)O2)O3`, the TGI in the assay with U251 CNS was above 10 µM; in the assay on A498 renal, 0.005 µM; in the assay with SK-MEL-28 melanoma, 0.0233 µM; in the assay on HL-60(TB) leukemia it was above 10 µM; with LOX IMVI melanoma it was above 10 µM; with MCF7 breast it was above 10 µM.
As for `O=C1c2ccccc2-c2nc(-c3ccccc3)cc3c2c1nc1ccccc13`, the TGI in the assay on UACC-257 melanoma is 30.6 µM; in the assay on U251 CNS, 39.6 µM; in the assay with SK-MEL-28 melanoma, 22.9 µM; in the assay with HL-60(TB) leukemia, 15 µM; with LOX IMVI melanoma, 10 µM; in the assay with SF-295 CNS, 27.6 µM. Besides, the results for the TGI with MCF7 breast and in the assay on PC-3 prostate were 21.9 µM and 32.3 µM, respectively.
Take `CC(=O)Nc1ccc(C(=O)N2N=C(C)/C(=C/c3cccc([N+](=O)[O-])c3)C2=O)cc1`: the TGI with UACC-257 melanoma, in the assay on SK-MEL-28 melanoma, in the assay on SNB-75 CNS, in the assay with HL-60(TB) leukemia, with LOX IMVI melanoma and with SF-295 CNS was above 100 µM each time.
As to `CC(C)=Nn1cnc(C(=N)C#N)c1N`, the TGI with UACC-257 melanoma, in the assay with U251 CNS, with SK-MEL-28 melanoma, in the assay on SNB-75 CNS, in the assay on HL-60(TB) leukemia and in the assay with SF-295 CNS was above 100 µM throughout. The TGI with MCF7 breast and with PC-3 prostate was above 100 µM in each case.
As to `O=c1[nH]cnc2sc(=S)c3c(c12)CCC3`, the TGI was 94 µM in the assay on UACC-257 melanoma; above 100 µM with U251 CNS; above 100 µM in the assay on SK-MEL-28 melanoma; above 100 µM in the assay with SNB-75 CNS; 57.6 µM in the assay on HL-60(TB) leukemia; above 100 µM with LOX IMVI melanoma. The TGI with SF-295 CNS, in the assay on MCF7 breast and in the assay with PC-3 prostate was above 100 µM in each case.
With `CCC(=O)NC(OCC1(CC)COC1)(C(F)(F)F)C(F)(F)F`, the TGI with UACC-257 melanoma, in the assay with U251 CNS, with A498 renal, with SK-MEL-28 melanoma, in the assay on SNB-75 CNS and in the assay with HL-60(TB) leukemia was above 100 µM each time. The TGI with LOX IMVI melanoma and in the assay with MCF7 breast was above 100 µM each time.
Take `Cc1ccc(SC[C@@]2(C(F)F)NC(=O)NC2=O)cc1`: the TGI in the assay on UACC-257 melanoma, in the assay on U251 CNS, with A498 renal, in the assay with SK-MEL-28 melanoma, in the assay on SNB-75 CNS and in the assay with HL-60(TB) leukemia was above 100 µM in each case. Further, the TGI in the assay with LOX IMVI melanoma, in the assay with SF-295 CNS and in the assay on PC-3 prostate was above 100 µM in each case.
On to `COc1cc(OC)cc(-n2c(N)c(-c3nc4ccccc4n3C)c3ccc([N+](=O)[O-])cc3c2=O)c1`, for which the TGI with UACC-257 melanoma was above 100 µM; in the assay with U251 CNS, above 100 µM; in the assay with A498 renal it was above 100 µM; in the assay with SK-MEL-28 melanoma, above 100 µM; in the assay on SNB-75 CNS, 63.9 µM; in the assay with LOX IMVI melanoma it was above 100 µM. This compound also had a TGI in the assay on PC-3 prostate above 100 µM.
Turning to `C=CCC1(CC)C(=O)NC(=O)NC1=O`, the TGI in the assay with UACC-257 melanoma, in the assay on U251 CNS, with SK-MEL-28 melanoma, in the assay with SNB-75 CNS, with HL-60(TB) leukemia and with LOX IMVI melanoma was above 100 µM in each case.
`COc1cc2c(cc1C)NC(=O)/C2=C\c1ccncc1`: the TGI with UACC-257 melanoma is 26.7 µM; in the assay on U251 CNS, 18.6 µM; in the assay on SK-MEL-28 melanoma, 84.3 µM; with SNB-75 CNS it was 33.7 µM; with HL-60(TB) leukemia it was above 100 µM; in the assay with SF-295 CNS it was 19.1 µM. Also, the TGI was 11.4 µM in the assay on MCF7 breast and above 100 µM in the assay on PC-3 prostate.
In the case of `CSc1nc(C#N)c(N)n1C`, the TGI with UACC-257 melanoma, in the assay on U251 CNS, in the assay on A498 renal, in the assay on SK-MEL-28 melanoma, with HL-60(TB) leukemia and with LOX IMVI melanoma was above 100 µM each time. For the same compound, the TGI in the assay with SF-295 CNS and in the assay on PC-3 prostate was above 100 µM throughout.
In the case of `O=c1[nH]c2cc3cccnc3c(Cl)c2nc1CBr`, the TGI with UACC-257 melanoma came to 54.9 µM; in the assay with U251 CNS, 32.4 µM; in the assay with HL-60(TB) leukemia it was 55.2 µM; with LOX IMVI melanoma, 31.1 µM; with SF-295 CNS, 54.1 µM; in the assay on MCF7 breast, 29.2 µM. The TGI in the assay on PC-3 prostate came out at 37.4 µM.
On to `COc1cccc(NC(=O)CC(=O)NNCC(=O)Nc2nnc(-c3ccc(N(CCC#N)S(=O)(=O)c4ccccc4)cc3)s2)c1`, for which the TGI with U251 CNS, in the assay on SK-MEL-28 melanoma, in the assay on LOX IMVI melanoma and with SF-295 CNS was above 100 µM throughout.
As to `CN(/N=N/c1nc[nH]c1C(N)=O)C1CCCCC1`, the TGI with UACC-257 melanoma, in the assay with U251 CNS, in the assay on A498 renal, in the assay on SK-MEL-28 melanoma, with SNB-75 CNS and in the assay on HL-60(TB) leukemia was above 100 µM in each case. In addition, the TGI with LOX IMVI melanoma and in the assay with SF-295 CNS was above 100 µM each time.
As to `CCOC(=O)c1c(NCc2ccccc2)n(-c2ccccc2)c(=S)n(-c2ccccc2)c1=O`, the TGI with UACC-257 melanoma, in the assay with U251 CNS, in the assay with SK-MEL-28 melanoma, in the assay with SNB-75 CNS, with HL-60(TB) leukemia and with LOX IMVI melanoma was above 100 µM each time. For the same compound, the TGI in the assay with SF-295 CNS and in the assay on MCF7 breast was above 100 µM in each case.
